# Results as given in patent publication US6989396B2, “Tropane alkaloid multidrug resistance inhibitors from Erythroxylum pervillei and use of the same” (The Board of Trustees of the University of Illinois, priority 2001, dated 2006).
# “And” between values parts separate entries of the source, which are not always exact repeats. Equal values may be shown once. Read-outs that look alike come from different tables or passages of the source.
# What was measured:
# BC1, breast cancer = test: In vitro cytotoxicity, human tumor panel: BC1; assay type: cell-based; conditions: Homo sapiens, read-out: ED50 BCI
# Protocol: (§1) Cytotoxicity assay. Compounds 1–9 were evaluated for cytotoxic activity against a panel of human cancer cell lines, including KB-V1 in the presence and absence of VLB, according to an established protocol (68).
# Lu1, lung cancer = test: In vitro cytotoxicity, human tumor panel: Lu1; assay type: cell-based; conditions: Homo sapiens, read-out: ED50 Lu1
# Protocol: as §1
# Col2, colon cancer = test: In vitro cytotoxicity, human tumor panel: Col2; assay type: cell-based; conditions: Homo sapiens, read-out: ED50 Col2
# Protocol: as §1
# [1] = system: KB, oral epidermoid carcinoma; test: In vitro cytotoxicity, human tumor panel: KB; assay type: cell-based; conditions: Homo sapiens, read-out: ED50 KB
# Protocol: as §1
# KB-V1, drug resistant KB = test: In vitro cytotoxicity, human tumor panel: KB-V1 with or without vinblastine; assay type: cell-based; conditions: for IC50: Homo sapiens, KB-V1, drug-resistant KB assessed in the absence of vinblastine, read-out: ED50 KB-V1−; for ED50 KB-V1+: drug resistant KB assessed in presence of vinblastine (1 μg/mL)
# Protocol: as §1
# [2] = system: LNCaP, hormone-dependent prostate cancer; test: In vitro cytotoxicity, human tumor panel: LNCaP; assay type: cell-based; conditions: Homo sapiens, LNCaP, read-out: ED50 LNCaP
# Protocol: as §1
# [3] = system: SW626, human ovarian adenocarcinoma; test: In vitro cytotoxicity, human tumor panel: SW626; assay type: cell-based; conditions: SW626, read-out: ED50 SW626
# Protocol: as §1
# [4] = system: SKOV3 (ovarian adenocarcinoma); test: Cytotoxicity in ovarian adenocarcinoma SKOV3 (pGp -ve); assay type: cell-based; conditions: Homo sapiens, SK-OV-3, read-out: IC50 SKOV3 (pGp − ve)
# Protocol: as §1
# [5] = system: SKVLB (ovarian adenocarcinoma, multidrug resistance); test: Multidrug resistance inhibition in SKVLB (pGp +ve); assay type: cell-based, human; conditions: Homo sapiens
# HCT-15, colon = test: In vitro multidrug resistance modulation (DINIB synergy): HCT-15; assay type: cell-based, human; conditions: increase of cytotoxicity of DINIB 1 × 10^−4 M; modulator μg/mL: verapamil 12.5, cyclosporin A 6.3, pervilleine B 12.5, C 3.1, D 50.0, F 25.0; <25 insignificant, >100 strong synergy
# From the text: (§2) Alkaloids 5–7 and 9 were further evaluated for their efficacy as potential modulators of P-glycoprotein. This assay assessed the ability of these test compounds to increase the cytotoxicity of an agent of the MDR phenotype {4,9-dihydro-3-iso-butyl-2-methyl-1-(p-nitrophenacyl)-4,9-dioxo-1H-naphth[2-3-d]imidazolium bromide (DINIB)}, compared with an agent not of the MDR phenotype (5-flurouracil), used as a negative control (73, 74).
# (§3) In vitro multidrug resistance assay.
# UO-31, renal = test: In vitro multidrug resistance modulation (DINIB synergy): UO-31; assay type: cell-based, human; conditions: increase of cytotoxicity of DINIB 1 × 10^−4 M; modulator μg/mL: verapamil 12.5, cyclosporin A 6.3, pervilleine B 12.5, C 3.1, D 50.0, F 25.0; <25 insignificant, >100 strong synergy
# From the text: as §2, §3
# CAKI-1, renal = test: In vitro multidrug resistance modulation (DINIB synergy): CAKI-1; assay type: cell-based, human; conditions: increase of cytotoxicity of DINIB 1 × 10^−4 M; modulator μg/mL: verapamil 12.5, cyclosporin A 6.3, pervilleine B 12.5, C 3.1, D 50.0, F 25.0; <25 insignificant, >100 strong synergy
# From the text: as §2, §3
# LOX IMVI, melanoma = test: In vitro multidrug resistance modulation (DINIB synergy): LOX IMVI; assay type: cell-based, human; conditions: increase of cytotoxicity of DINIB 1 × 10^−4 M; modulator μg/mL: verapamil 12.5, cyclosporin A 6.3, pervilleine B 12.5, C 3.1, D 50.0, F 25.0; <25 insignificant, >100 strong synergy
# From the text: as §2, §3
# KB-3 cells = test: Growth inhibitory potential (sulforhodamine B cell survival assay): KB-3; assay type: cell-based; conditions: Homo sapiens, read-out: IC50 KB-3
# Protocol: (§4) One part of a natural product drug discovery program involves monitoring the potential of plant extracts to reverse multiple drug resistance. […] To investigate the potential of plant extracts or compounds to reverse multidrug-resistance, KB-V1 cells are treated with different concentrations of plant extracts or compounds in the presence (1 μg/ml) or absence of vinblastine.
# (§5) Cytotoxic potential. The cytotoxic potential of test substances with KB-3, KB-V1 and KB-8-5 cells was determined as described previously (24). Briefly, various concentrations of test compounds (dissolved in 10 μl of 10% DMSO) were transferred to 96-well plates, and 190 μl aliquots of cell suspensions (5×10^4 cells/ml) were added to each well. The plates then were incubated for 72 hours at 37° C. (100% humidity with a 5% CO2 atmosphere in air), and 100 μl of cold 20% aqueous trichloroacetic acid were added to the growth medium in each well to fix the cells. The cultures were incubated at 4° C. for 30 minutes, washed, air-dried, stained with sulforhodamine B solution, and washed with 1% acetic acid. Finally, 200 μl of 10 mM Tris base were added to each well and the optical densities were determined at 515 nm utilizing an ELISA plate reader. In each case, a zero-day control was performed by adding an equivalent number of cells to several wells and incubating at 37° C. for 30 minutes, and processing as described above. Optical density values obtained with the zero-day control were subtracted, and cell survival, relative to control (solvent-treated) cultures, was calculated. The cytotoxic potential of the compounds with CEM and CEM/VLB100 cells was determined as described by Beck et al. (30). Cells were grown in 24-well plates at a density of 5–6×10^5 cells/ml. At 48 hours, the cell number was determined using a Coulter Counter, with a channelizer to distinguish cells from debris.
# KB-V1 cells [6] = test: Reversal of MDR, cell survival assay: KB-V1 with or without vinblastine; assay type: cell-based, human; conditions: for IC50: Homo sapiens, KB-V1, absence of vinblastine, 72 hours, read-out: IC50 KB-V1 (−); for Ratio of IC50 values [KB-V1 (−)]/[KB-V1 (+)]: vinblastine 1 μg/ml
# Protocol: as §4
# as §5, with “Finally, 200 μl of 10 mM Tris base were added to each well and the optical densities were determined at 515 nm utilizing an ELISA plate reader.” left out
# KB-V1 cells [7] = test: In vivo hollow fiber test: KB-V1; parameters: species or system NCr nu/nu mice; conditions: for growth inhibition, administered as single agents: KB-V1 or KB-8-5 cells in hollow fibers implanted into NCr nu/nu mice; for Calculated inhibition (vinblastine + reversing agent as single agents), KB-V1, i.p. site / Calculated inhibition (vinblastine + reversing agent as single agents), KB-V1, s.c. site: summation of single-agent inhibitions; for Observed inhibition from coadministration with vinblastine, KB-V1, s.c. site / Observed inhibition from coadministration with vinblastine, KB-V1, i.p. site: vinblastine 250 μg/kg + reversing agent 0.136 mmol/kg; for Observed inhibition from coadministration with vinblastine, KB-V1, i.p. site / Growth inhibition, single agent, KB-V1, s.c. site: i.p. injection once daily days 3–6; for Growth inhibition, single agent, KB-V1, s.c. site: vinblastine 250 μg/kg, reversing agents 0.136 mmol/kg
# Protocol: (§6) In vivo hollow fiber test. […] Confluent monolayers of KB-3, KB-V1 or KB-8-5 cells were harvested, collected by centrifugation and resuspended in conditioned medium at a concentration of 7.5×10^5 cells/ml.
# (§7) Test compounds were administrated once daily by intraperitoneal injection from day 3–6 after implantation. Body weights were measure daily.
# (§8) After incubating at 37° C. for 4 hours, the culture medium was aspirated and the samples were washed twice with normal saline containing 2.5% protamine sulfate solution by overnight incubation at 4° C. […] The formazan was extracted from each sample with DMSO (250 μl/well) for 4 hours at room temperature on a rotation platform.
# CEM/VLB100 cells = test: MDR reversal in drug-resistant human leukemia CEM/VLB100 cells; assay type: cell-based; conditions: Homo sapiens; CEM/VLB100 cells; read-out: IC50 value of the cytotoxic drug in the absence of modulator
# Protocol: as §5, with “Finally, 200 μl of 10 mM Tris base were added to each well and the optical densities were determined at 515 nm utilizing an ELISA plate reader.” left out
# KB-8-5 cells = test: In vivo hollow fiber test: KB-8-5; parameters: species or system NCr nu/nu mice; conditions: vinblastine 100 μg/kg; reversing agents 0.136 mmol/kg
# Protocol: as §6, §7, §8
# KB-V1 cells [8] = conditions: growth inhibitory effect of vinblastine; cited from earlier work
# [9] = read-out: IC50 BSKVLB (pGp + ve)
# [10] = read-out: IC50 SKVLB (pGp + ve), addition of adriamycin
SMILES,"IC50 (BC1, breast cancer) [µg/mL]","IC50 (Lu1, lung cancer) [µg/mL]","IC50 (Col2, colon cancer) [µg/mL]",IC50 [1] [µg/mL],"IC50 (KB-V1, drug resistant KB) [µg/mL]","ED50 KB-V1+ (KB-V1, drug resistant KB) [µg/mL]",IC50 [2] [µg/mL],IC50 [3] [µg/mL],IC50 [4] [µM],"IC50 [5, 9] [µM]","IC50 [5, 10] [µM]","synergy value at a 95% confidence level, HCT-15 (HCT-15, colon)","synergy value at a 95% confidence level, UO-31 (UO-31, renal)","synergy value at a 95% confidence level, CAKI-1 (CAKI-1, renal)","synergy value at a 95% confidence level, LOX IMVI (LOX IMVI, melanoma)","IC50 (KB-3 cells; KB3, 72 h) [µM]",IC50 (KB-V1 cells [6]) [µM],Ratio of IC50 values [KB-V1 (−)]/[KB-V1 (+)] (KB-V1 cells [6]),"growth inhibition, administered as single agents (KB-V1 cells [7])","Growth inhibition, single agent, KB-V1, s.c. site (KB-V1 cells [7])",other results
"COc1cc(C=CC(=O)O[C@H]2C[C@@H]3C[C@H](OC(=O)c4cc(OC)c(OC)c(OC)c4)C[C@H]2N3C)cc(OC)c1OC [Compound 5, 3α-(3,4,5-trimethoxybenzoyloxy)-6β-(3,4,5-trimethoxycinnamoyloxy)tropane]",9.4,3.1,1.3,> 20,8.8,0.1,1,3.2,3.8,> 10,0.12,607.6,248.7,268.1,33.3,> 35,15,88,not significantly inhibited,0%,"Calculated inhibition (vinblastine + reversing agent as single agents), KB-V1, i.p. site (KB-V1 cells [7]): 9.4%; Calculated inhibition (vinblastine + reversing agent as single agents), KB-V1, s.c. site (KB-V1 cells [7]): 3.8%; Observed inhibition from coadministration with vinblastine, KB-V1, s.c. site (KB-V1 cells [7]): 1.4 (P = 0.87) %; Observed inhibition from coadministration with vinblastine, KB-V1, i.p. site (KB-V1 cells [7]; listed as pervilleine B): 66.8 (P < 0.0001) %"
"CC[C@]1(O)C[C@@H]2CN(CCc3c([nH]c4ccccc34)[C@@](C(=O)OC)(c3cc4c(cc3OC)N(C)[C@H]3[C@@](O)(C(=O)OC)[C@H](OC(C)=O)[C@]5(CC)C=CCN6CC[C@]43[C@@H]65)C2)C1 [vinblastine, reference compound]",,,,,,,,,,,,,,,,,,,not significantly inhibited,3.8% and 0%,"IC50 (KB-3 cells; KB3, 72 hours): 0.04 µM; IC50 (CEM/VLB100 cells): 5 µM; Observed inhibition from coadministration with vinblastine, KB-V1, i.p. site (KB-V1 cells [7]): 60.3%; Growth inhibition, single agent, KB-8-5, s.c. site (KB-8-5 cells): 2.3%; resistance of KB-V1 cells relative to parental KB-3 cells (KB-V1 cells [8]): > 200 fold"
"COc1cc(C=CC(=O)O[C@H]2C[C@H]3C[C@H](OC(=O)C=Cc4cc(OC)c(OC)c(OC)c4)[C@@H](C2)N3C)cc(OC)c1OC [Compound 6, 3α,6β-di-(3,4,5-trimethoxycinnamoyloxy)tropane]",2.8,2.3,4.1,2.2,9,0.1,> 20,1.4,2.8,> 10,0.08,946.7,444.0,332.3,32.6,3.7,15,88,not significantly inhibited,0%,"Calculated inhibition (vinblastine + reversing agent as single agents), KB-V1, i.p. site (KB-V1 cells [7]): 15.9%; Calculated inhibition (vinblastine + reversing agent as single agents), KB-V1, s.c. site (KB-V1 cells [7]): 3.8%; Observed inhibition from coadministration with vinblastine, KB-V1, s.c. site (KB-V1 cells [7]): 0.2 (P = 0.96) %; Observed inhibition from coadministration with vinblastine, KB-V1, i.p. site (KB-V1 cells [7]; listed as pervilleine C): 77.7 (P < 0.0001) %"
